Values quoted from earlier work in patent publication US20070292469A1, “Antimicrobial composition” (priority 2005, published 2007).

System: wide range of microorganisms
Conditions: literature statement (Block, Disinfection, Sterilization, and Preservation 4th ed. 1991)

| Substance | antimicrobial activity |
| --- | --- |
| monoethanolamines | lack dramatic antimicrobial activity |
| α-4-[1-tris(2-hydroxyethyl) ammonium-2-butenyl] poly[1-dimethylammonium-2-butenyl]-ω-tris(2-hydroxyethyl)ammonium chloride [polyquaternium 1] | significant antimicrobial activity |
